# Experimental data from PMC4684281, “Antitumor Effects and Mechanism of Novel Emodin Rhamnoside Derivatives against Human Cancer Cells In Vitro” (PLoS ONE, 2015).
# Test system: HepG2 cells
# Experiment: Fluorescence microscopy assay (Hoechst 33342)
# Assay type: cell-based, Human
# Settings: HepG2, varying concentrations (0.1μM; 0.5μM; 2.5μM), 48h, dosage-dependent
# Description: HepG2 cells were inoculated in duplicate at 3×10^5/well density in 6-well plate, and allowed to attach at 37°C for 24 hours. Afterwards, cells were treated with 10 μM HCPT, 25 μM emodin and specific concentration EM-d-Rha (0.1μM, 0.5μM, 2.5μM), respectively. Cell control group was set in the same way. […] Medium were exchanged as described previously. In the end, all medium were discarded and cells were digested with 2mL 0.25% Trypsin-EDTA solution at 37°C for 5 min. After cells were harvested, cells were washed with PBS twice followed by centrifuging at 300×g for 5 minutes. Finally, cells were re-suspended in 100μL cold PBS after the supernatant was discarded. Cells were cultured in the dark for 10 minutes at room temperature after adding 100μL 1mg/mL Hoechst 33342 staining solution. Cells were harvested again as described previously to discard the staining solution. Wash the harvested cells twice with PBS before applying to the clean glass slides. The morphological changes of cells nuclei were observed and photographed under the fluorescence microscope (Olympus, Japan) at 350 nm excitation wavelength. The experiment was repeated three times.
structure (smiles),measurement,value
"CC(=O)O[C@@H]1[C@@H](O[C@@H]2O[C@@H](C)[C@H](O)[C@@H](OC(C)=O)[C@H]2OC(C)=O)[C@H](C)O[C@@H](Oc2cc(O)c3c(c2)C(=O)c2cc(C)cc(O)c2C3=O)[C@@H]1OC(C)=O [S-8, 3-(2”,3”-Di-O-acetyl-α-L-rhamnopyranosyl-(1→4)-2’,3’-di-O-acetyl-α-L-rhamnopyranosyl)-emodin]","Nuclear morphology, Hoechst 33342",nuclear shrinkage and DNA condensation
